Molecules are shown by their SMILES. Calls of active or inactive are those of the source.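 Rule for the calls: active = maximal inhibition of USP17 at or above 30% in the confirmation dose-response, a value not among the printed readouts; inactive = the rest.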 Some results are limits rather than exact numbers.

Our source for the IC50 values is PubChem BioAssay AID1645864 (Buhrlage Lab, Dana-Farber Cancer Institute and Novartis …, 2021).

The target of this test is Ubiquitin carboxyl-terminal hydrolase 17-like protein 5 (Homo sapiens) (UniProt A8MUK1). Description: ubiquitin-specific protease 17 inhibitors, concentration series, biochemical, verification of primary actives (AID 1645864). The following applies: purified USP17, ubiquitin-rhodamine cleavage fluorescence, 3 h.
Sequence of Ubiquitin carboxyl-terminal hydrolase 17-like protein 5 (Homo sapiens) (A8MUK1 whole entry, looked up): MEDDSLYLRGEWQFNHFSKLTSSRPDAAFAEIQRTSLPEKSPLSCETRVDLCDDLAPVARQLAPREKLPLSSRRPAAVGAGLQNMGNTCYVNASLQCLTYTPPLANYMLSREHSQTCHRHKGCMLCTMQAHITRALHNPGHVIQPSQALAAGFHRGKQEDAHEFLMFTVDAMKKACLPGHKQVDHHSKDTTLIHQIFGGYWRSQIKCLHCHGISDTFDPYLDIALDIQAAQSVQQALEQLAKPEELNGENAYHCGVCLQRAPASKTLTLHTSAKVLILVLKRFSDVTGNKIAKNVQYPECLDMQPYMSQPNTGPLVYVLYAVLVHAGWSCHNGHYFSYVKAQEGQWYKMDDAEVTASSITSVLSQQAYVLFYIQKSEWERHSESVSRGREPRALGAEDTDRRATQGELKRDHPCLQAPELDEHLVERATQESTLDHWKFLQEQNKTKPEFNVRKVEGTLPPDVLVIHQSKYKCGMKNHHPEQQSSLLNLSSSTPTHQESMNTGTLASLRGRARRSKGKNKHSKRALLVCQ
Broadly, the IC50 is the concentration that inhibits the measured activity by half. Turning to `COc1ccc(/C=C/C(=O)N2CCc3ccccc32)cc1S(=O)(=O)N1CCOCC1`, the IC50 was > 50 µM (inactive). In the case of `CC1=C2C(=NCCN1)C(=O)N(c1ccccc1)C2c1cccnc1` (stereo not given), the IC50 was > 50 µM (inactive). Consider `COc1cccc(NC(=O)Nc2nccn(-c3ccc(F)cc3)c2=O)c1`, for which the IC50 was 13.9 µM. With `C/C=C1/C2=CCCN3C(=O)O[C@H]([C@H]1O)[C@H]23` the figure was 1.42 µM. With `COc1ccc(-c2cc3nc(C)cc(Nc4ccc(F)cc4)n3n2)cc1OC` the figure was > 50 µM (inactive); with `COc1ccc(-c2cc3nc([C@H](C)NC(=O)Cc4cccc(F)c4)nn3cn2)cc1`, 3.75 µM; with `Cc1nc(N2CCCC2)ncc1C(=O)Nc1ccc(F)c(F)c1`, 32.3 µM. Take `COc1ncccc1CN1CCn2c(Cn3cccn3)cnc2C1C` (stereo not given): the IC50 was > 50 µM (inactive). With `N#Cc1ccccc1OCc1csc(-c2ccccc2)n1`, the IC50 is > 50 µM (inactive). Consider `COc1cc2c(cc1OC)-c1cc(Nc3ccc(Br)cc3)nc(=O)n1CC2`, for which the IC50 was 1.65 µM.
